ChEMBL document CHEMBL3217569, “N-(5-substituted thiazol-2-yl)-2-aryl-3-(tetrahydro-2H-pyran-4-yl) propanamides as glucokinase activators” (Medchemcomm, 2011)

The compounds below were run against T1, Hexokinase-4 (Homo sapiens, UniProt P35557) (assay: Activation of recombinant human His6-tagged glucokinase by G6PDH-coupled spectrophotometry).
T1 sequence (P35557 whole entry): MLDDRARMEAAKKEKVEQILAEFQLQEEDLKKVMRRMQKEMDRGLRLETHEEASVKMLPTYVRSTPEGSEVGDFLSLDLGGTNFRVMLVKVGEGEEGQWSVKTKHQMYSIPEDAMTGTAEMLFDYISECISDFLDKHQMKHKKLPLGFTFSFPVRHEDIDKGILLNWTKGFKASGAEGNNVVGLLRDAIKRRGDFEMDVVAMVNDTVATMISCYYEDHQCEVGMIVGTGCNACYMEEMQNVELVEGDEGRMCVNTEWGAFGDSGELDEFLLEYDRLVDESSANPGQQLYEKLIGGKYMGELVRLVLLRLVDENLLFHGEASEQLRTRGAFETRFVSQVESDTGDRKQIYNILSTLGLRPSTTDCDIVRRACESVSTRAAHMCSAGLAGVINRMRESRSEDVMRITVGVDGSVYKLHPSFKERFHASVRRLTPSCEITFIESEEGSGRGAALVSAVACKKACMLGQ
For `O=C(Cn1cc(-c2cnc(NC(=O)C(CC3CCOCC3)c3ccc(S(=O)(=O)C4CC4)cc3)s2)nn1)NC1CC1` (racemic), the EC50 was over 20000 nM. Work on `O=C(Nc1ncc(-c2cn(CCO)nn2)s1)C(CC1CCOCC1)c1ccc(S(=O)(=O)C2CC2)cc1` (racemic) yielded an EC50 of 180 nM. Compound `CN1CCN(C(=O)Cn2cc(-c3cnc(NC(=O)C(CC4CCOCC4)c4ccc(S(=O)(=O)C5CC5)cc4)s3)nn2)CC1` (racemic) has an EC50 of 790 nM. `CCOC(=O)Cn1cc(-c2cnc(NC(=O)C(CC3CCOCC3)c3ccc(S(=O)(=O)C4CC4)cc3)s2)nn1` (racemic) showed an EC50 of 330 nM. Work on `O=C(Nc1ncc(-c2cn(CCOCc3ccccc3)nn2)s1)C(CC1CCOCC1)c1ccc(S(=O)(=O)C2CC2)cc1` (racemic) yielded an EC50 of 290 nM. With `O=C(O)CCn1cc(-c2cnc(NC(=O)C(CC3CCOCC3)c3ccc(S(=O)(=O)C4CC4)cc3)s2)nn1` (racemic) the EC50 was 1350 nM. In the case of `CCNC(=O)Cn1cc(-c2cnc(NC(=O)C(CC3CCOCC3)c3ccc(S(=O)(=O)C4CC4)cc3)s2)nn1` (racemic), the EC50 is reported as over 20000 nM. `COC(=O)[C@@H](NC(=O)c1cnc(NC(=O)C(CC2CCOCC2)c2ccc(S(=O)(=O)C3CC3)cc2)s1)C(C)C` (mixture of isomers) gave an EC50 of 1440 nM. With `O=C(O)CCNC(=O)c1cnc(NC(=O)C(CC2CCOCC2)c2ccc(S(=O)(=O)C3CC3)cc2)s1` (racemic) the EC50 was 1800 nM. `COC(=O)[C@H](CC(C)C)NC(=O)c1cnc(NC(=O)C(CC2CCOCC2)c2ccc(S(=O)(=O)C3CC3)cc2)s1` (mixture of isomers) showed an EC50 of 1520 nM. `CN(C)C(=O)Cn1cc(-c2cnc(NC(=O)C(CC3CCOCC3)c3ccc(S(=O)(=O)C4CC4)cc3)s2)nn1` (racemic) was tested, and the EC50 was 300 nM. In the case of `O=C(Nc1ncc(-c2cn(CC(=O)N3CCOCC3)nn2)s1)C(CC1CCOCC1)c1ccc(S(=O)(=O)C2CC2)cc1` (racemic), the EC50 is reported as 640 nM. Compound `COC(=O)CCNC(=O)c1cnc(NC(=O)C(CC2CCOCC2)c2ccc(S(=O)(=O)C3CC3)cc2)s1` (racemic) has an EC50 of 520 nM. For `CCOC(=O)CCCn1cc(-c2cnc(NC(=O)C(CC3CCOCC3)c3ccc(S(=O)(=O)C4CC4)cc3)s2)nn1` (racemic), the EC50 was 450 nM. `O=C(Nc1ncc(-c2cn(CCO)nn2)s1)[C@H](CC1CCOCC1)c1ccc(S(=O)(=O)C2CC2)cc1` was tested, and the EC50 was 220 nM. `CCN(CC)C(=O)Cn1cc(-c2cnc(NC(=O)C(CC3CCOCC3)c3ccc(S(=O)(=O)C4CC4)cc3)s2)nn1` (racemic) showed an EC50 of 210 nM. `CC(C)C[C@H](NC(=O)c1cnc(NC(=O)C(CC2CCOCC2)c2ccc(S(=O)(=O)C3CC3)cc2)s1)C(=O)O` (mixture of isomers) gave an EC50 of over 20000 nM. Work on `CC(C)[C@H](NC(=O)c1cnc(NC(=O)C(CC2CCOCC2)c2ccc(S(=O)(=O)C3CC3)cc2)s1)C(=O)O` (mixture of isomers) yielded an EC50 of 11300 nM. `CCOC(=O)CCn1cc(-c2cnc(NC(=O)C(CC3CCOCC3)c3ccc(S(=O)(=O)C4CC4)cc3)s2)nn1` (racemic) gave an EC50 of 350 nM. With `CNC(=O)Cn1cc(-c2cnc(NC(=O)C(CC3CCOCC3)c3ccc(S(=O)(=O)C4CC4)cc3)s2)nn1` (racemic) the EC50 was 170 nM.
